“Also recorded” adds a separate entry of the source. Where two headings read alike, the source gives them in different places. Residues, ends and D or L forms follow the SMILES beside them. *: point of attachment. Cbz = O=C(OCc1ccccc1)*
Assays:
[1] = system: 20S and/or 26S proteasome; test: FACS-based proteasome activity assay with Me4BodipyFL-Ahx3Leu3VS activity probe in MelJuSo wild type cells; assay type: cell-based, human
Experimental: MelJuSo cells are washed, trypsinized and resuspended in medium containing FBS and antibiotics. After counting the concentration is adjusted to 200,000 cells per mL. Using the Wellmate microplate dispenser fitted with small bore nozzle tubing, 50 μL of cell suspension is transferred to each well of a black 384 wells plate (10,000 cells/well).
A brief spin down will prevent any liquid from being lost when the plate cover is removed. Using a Hamilton liquid handling workstation the compounds are diluted to appropriate concentrations. To “wash” the cells prior to exposure 30 μL of medium is removed from each well and is replaced with fresh medium. Then the compounds are added to the medium of the cells (final concentration 5 μM).
Using the Wellmate microplate dispenser fitted with small bore nozzle tubing, […] of probe suspension is transferred to each well resulting in a final probe concentration of 200 nM. Plates are left to incubate for two hours. Then the medium is removed and the cells are washed one time with PBS. The PBS is removed and 10 μL of trypsin is added to each well. The plates are left on a shaker for 2 minutes, placed in an incubator for 5 minutes and put on a shaker again for 2 minutes. 40 μL of PBS containing 2% FBS is added per well and the plates are put on the shaker for 2 minutes. Finally, 20 μL of PBS containing 4% formaldehyde is added and the plates are left to shake for at least 15 minutes. Plates are left on a shaker at 4° C. until they can be measured.
The FITS unit is installed on the FACS and everything is turned on. To remove air from the system and ascertain that everything works fine the system is primed twice. One by one the plates are brought down and measured. In between plates a “daily clean” cycle is performed to prevent the system from becoming clogged. After the last plate the system should be cleaned again.
Analysis is always performed per plate. Throughout the analysis the following parameters are considered: • Forward Scatter (FSC): size of the cell • Side Scatter (SSC): granularity of the cell • Number of events (#) • Probe signal (FL-1): proteasome activity • FL-2 and FL-3: signal in other channels
All DMSO samples are checked and aberrant wells (low # events, high SSC, no signal) are excluded. The average of the FL-1 from all remaining DMSO samples is used to calculate the “ratio vs. DMSO” and the FL-1 log 2 ratio of the experimental samples. This will result in DMSO samples having a FL-1 log 2 value around zero. Compounds are considered “activators” or “hits” if the FL-1 log 2 ratio is >1, and inhibitors if the FL-1 log 2 ratio is […].
(§1) Cells were washed once with phosphate buffered saline (PBS, 1 GIBCO tablet in 500 mL MilliQ). Fresh medium containing the compound at the indicated concentration was added. After the incubation time 200 nM of Me4BodipyFL-Ahx3Leu3VS activity probe was added to the cells and after two hours of incubation cells were harvested for subsequent analysis by FACS or post-lysis fluorescence detection.
Celts were washed once with PBS, trypsin was added and the plate was placed at 37° C. for 5 minutes to allow the cells to detach. When detached the cells were resuspended in PBS supplemented with 2% FBS. Cells were fixed with formaldehyde (final concentration 1% in PBS). All samples were measured using a FACSCalibur flow cytometer (BD Biosciences). […] The complete workflow used for the compound screens is described above in more detail.
The compound libraries mentioned above are screened using a FACS-based activity assay. The proteasome activity probe Me4BodipyFL-Ahx3Leu3VS activity probe is used to fluorescently label the proteasome. This probe binds irreversibly to the catalytic domains of the 20S CP. When proteasome activity is increased, increased probe binding results in an increase in fluorescent signal compared to untreated cells.

[2] = system: proteasome; settings: literature overview; cited from earlier work
[3] = system: MelJuSo wild type cells; test: Cell viability (resazurin) assay, MG132 induced cell death; settings: 1 μM, 24 hours
[4] = system: proteasome subunits (β2- and β5-subunits); test: SDS-PAGE in-gel fluorescence of probe-labelled proteasome subunits in MelJuSo (MEL-JUSO) cells; assay type: cell-based, human; settings: for activation effect on the β2- and β5-subunits: MEL-JUSO cells, p38 inhibitor panel tested at 1 and 5 μM, effect at 5 μM, FIG. 14B
Experimental: as §1
Cells were washed once with PBS, trypsin (6 well plate: 500 μL, 12 well plate: 200 μL, 24 well plate: 100 μL) was added and the plate was placed at 37° C. for 5 minutes to allow the cells to detach. When fully detached the cells were resuspended in fresh culture medium. Medium with cells was collected and after a centrifugation step (1100 ref for 2 minutes) the cells (pellet) were resuspended in cold HR buffer (50 mM Tris pH=7.4, 5 mM MgCl2, 250 mM sucrose, 1 mM DTT and 2 mM ATP). Lysis of the cells is achieved by sonification (Bioruptor, high intensity for 5 minutes with an ON/OFF cycle of 30 seconds) at 4° C. After a centrifugation step (13.600 rpm for 10 minutes) to remove cell debris the protein concentration (absorbance at 280 nm) of the supernatant is measured with a NanoDrop spectrophotometer. Fresh HR buffer without any cells was used as a blank,
Equal amounts of protein (15-20 μg) were denatured by heating the samples for 10 minutes at 71° C. in loading buffer (450 μL 4× loading buffer (Invitrogen), 45 μL β-Mercaptoethanol and 105 μl, MilliQ, 2 parts sample to 1 part loading buffer). The samples were loaded onto a 12% SDS-PAGE gel using the NuPAGE system from Invitrogen. MOPS (3-(N-morpholino)propanesulfonic acid) was used as a running buffer. Gels run at 180 V for approximately 1.5-2.0 hours and were directly imaged using the ProXPRESS 2D Proteomic imaging system (Perkin Elmer). Resolution was set at 100 μm, excitation at 480/30 and emission at 530/30. To verify protein loading, gels were stained with Coomassie Brilliant Blue. Images were analyzed using Totallab analysis software (Nonlinear Dynamics, Newcastle upon Tyne, UK) to quantify the intensity of the bands detected.
Additionally, FACS and SDS-PAGE validation experiments were done in which cells were incubated for 16 hours with 0.1, 0.5, 1.0 or 5.0 μM compound.
The proteasomal subunits are then labeled using the fluorescent […] probe, which selectively binds only to active β-subunits of the proteasome. The fluorogenic-labeled proteasome subunits were visualized directly in-gel by fluorescence scanning.
To further investigate this, MelJuSo wild type cells were incubated with 5 μM Win 62,577 for one hour. Then the medium was changed for regular medium without the compound present. After one or two hours of “washout” cells were stained with the proteasome activity probe and analyzed with SDS-PAGE followed by fluorescent scanning of the gel. The results of this experiment are depicted in FIG. 17.

[5] = target: p38α (Homo sapiens, UniProt Q16539); settings: literature [80, 83]; cited from earlier work
Sequence of p38α (Q16539 whole entry): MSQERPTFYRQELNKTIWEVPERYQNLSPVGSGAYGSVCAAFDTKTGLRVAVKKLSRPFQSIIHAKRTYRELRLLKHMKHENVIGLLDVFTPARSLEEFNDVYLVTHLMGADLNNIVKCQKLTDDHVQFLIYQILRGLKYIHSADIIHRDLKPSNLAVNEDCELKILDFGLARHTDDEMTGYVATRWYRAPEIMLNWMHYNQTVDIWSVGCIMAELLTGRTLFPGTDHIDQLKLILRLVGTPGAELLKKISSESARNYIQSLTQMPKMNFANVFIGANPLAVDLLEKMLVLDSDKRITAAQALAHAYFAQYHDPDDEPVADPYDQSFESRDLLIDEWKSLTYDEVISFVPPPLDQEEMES

[6] = system: proteasome; settings: literature overview; cited from earlier work; remark: listed apart in the source
[7] = LOPAC and JHCCL library screen, 5 μM compound, 16 hours, 200 nM probe two hours

For CCCn1c(=O)c2[nH]c(C3CCCC3)nc2n(CCC)c1=O [DPCPX, 8-cyclopenthyl-1,3-dipropylxanthine], the “time dependence of proteasome activation (FL-1 log 2 ratio)” value ([1]; 0.1, 0.5, 1.0 or 5.0 μM compound for 4, 16, 24 or 48 hours) was “both concentration and time dependent; also recorded: displayed an increase in activation over time” and the “screening hit (FL-1 log 2 ratio >1.00 and no exclusion criterion met)” value [1, 7] was “identified as hits”.
For CCCCC/C=C\C/C=C\CCCCCCCC(=O)O [Linoleic acid], the “Results: purified proteasome/lysate” value [2] is given as “Increases all 3 proteasome”.
In the case of CC(C)C[C@@H](C=O)NC(=O)[C@H](CC(C)C)NC(=O)[C@H](CC(C)C)NC(=O)OCc1ccccc1 [MG132] (Cbz-Leu-Leu-Leu-aldehyde), the “fluorescent probe signal compared to untreated cells” value [1] is reported as “reduces the signal compared to untreated cells” and the cytotoxicity [3] is reported as “highly cytotoxic”.
For CCCCCCCC/C=C\CCCCCCCC(=O)O [Oleic acid], the “Results: purified proteasome/lysate” value [2] is given as “Increases all 3 proteasome”.
In the case of COc1cccc(-c2cc(=O)c3ccccc3o2)c1N [PD98059], the “activation effect on the β2- and β5-subunits” value (“activation effect” for short) [4] is reported as “most pronounced; also recorded: pronounced activation effect” and the “activation effect” value ([4]; listed as PD98052) is reported as “seems to enhance the activity”.
In the case of Oc1ccc(-c2nc(-c3ccc(F)cc3)c(-c3ccncc3)[nH]2)cc1 [SB202190], the “inhibition of p38α isoform” value [5] is listed as “inhibits both the p38α and p38β-isoforms”, the “activation effect” value [4] is listed as “pronounced activation effect” and the “activation effect” value ([4]; listed as SB202150) is listed as “most pronounced”.
For CCCCCCCCCCCCOS(=O)(=O)[O-].[Na+] [SDS], the “Results: purified proteasome/lysate” value [2] is given as “Increases all 3 proteasome”.
For Fc1ccc(-c2nc3n(c2-c2ccncc2)CCS3)cc1 [SKF86002], the “inhibition of p38α isoform” value [5] is given as “inhibits only p38α”.
For Cc1cc(C(=O)CN2CCCC2)c(C)n1-c1ccc(F)cc1 [USP14 inhibitor, IU1], the “FL-1 log 2 score compared to the compounds identified in the screen” value ([1]; 5 μM, 16 hours, triplicate) is given as “scores relatively low”, the “Results: purified proteasome/lysate” value [2] is given as “Increases all 3 proteasome” and the “Results: live cells” value [6] is given as “Increases all 3”.
With C#C[C@]1(O)CC[C@H]2C3CCC4=Cc5nc6nc7ccccc7n6cc5C[C@]4(C)C3CC[C@@]21C (some centres unmarked) [Win 62,577] the “concentration dependence of proteasome activation (FL-1 signal)” value [1] was “dose-dependent increase of the fluorescent signal”, the “screening hit (FL-1 log 2 ratio >1.00 and no exclusion criterion met)” value [1] was “identified as hits” and the “time dependence of proteasome activation (FL-1 log 2 ratio)” value [1] was “mild decrease after 48 hours of incubation”. The “probe signal after one hour of incubation, no washout” value [4] was “strong activation; also recorded: clear increase in signal”, the “probe signal after one hour of washout” value [4] was “still more than the untreated control but less when compared to the no washout” and the “probe signal after two hours of washout” value [4] was “disappeared”. The “timeframe of onset and termination of increasing proteasome activity” value [4] was 1 to 2 h.
For CC/C=C\C/C=C\C/C=C\CCCCCCCC(=O)O [alpha linolenic acid], the “Results: purified proteasome/lysate” value [2] is listed as “Increases all 3 proteasome”.
With CN1[C@@H]2CC[C@H]1C[C@@H](OC(c1ccccc1)c1ccccc1)C2 [benztropin] the “screening hit (FL-1 log 2 ratio >1.00 and no exclusion criterion met)” value [1, 7] was “initially identified in the JHCCL screen”.
With OCCN(CCO)c1nc(N2CCCCC2)c2nc(N(CCO)CCO)nc(N3CCCCC3)c2n1 [dipyrimadole, Dipyrimadole] the “screening hit (FL-1 log 2 ratio >1.00 and no exclusion criterion met)” value [1, 7] was “identified as hits in both”.
With CN(C)CCC[C@@]1(c2ccc(F)cc2)OCc2cc(C#N)ccc21 [escitalopram] the “screening hit (FL-1 log 2 ratio >1.00 and no exclusion criterion met)” value [1, 7] was “initially identified in the JHCCL screen”.
With CC(C)OC(=O)C(C)(C)Oc1ccc(C(=O)c2ccc(Cl)cc2)cc1 [fenofibrate, Fenofibrate] the “screening hit (FL-1 log 2 ratio >1.00 and no exclusion criterion met)” value [1, 7] was “identified as hits”.
For CN(C)C(=O)C(CCN1CCC(O)(c2ccc(Cl)cc2)CC1)(c1ccccc1)c1ccccc1 [loperamide, Loperamide], the “screening hit (FL-1 log 2 ratio >1.00 and no exclusion criterion met)” value [1] was “identified as hits”.
For CN1C[C@H](CNC(=O)OCc2ccccc2)C[C@@H]2c3cccc4c3c(cn4C)C[C@H]21 [metergoline, Metergoline], the “screening hit (FL-1 log 2 ratio >1.00 and no exclusion criterion met)” value [1, 7] was “identified as hits”.
With CC#C[C@]1(O)CC[C@H]2[C@@H]3CCC4=CC(=O)CCC4=C3[C@@H](c3ccc(N(C)C)cc3)C[C@@]21C [mifepristone, Mifepristone] the “screening hit (FL-1 log 2 ratio >1.00 and no exclusion criterion met)” value [1, 7] was “identified as hits”.
With O=c1[nH]c2ccccc2n1C1CCN(CCCC(c2ccc(F)cc2)c2ccc(F)cc2)CC1 [pimozide, Pimozide] the “screening hit (FL-1 log 2 ratio >1.00 and no exclusion criterion met)” value [1, 7] was “identified as hits”.
For Nc1ccc2cc3ccc(N)cc3nc2c1 [proflavine, Proflavine], the “screening hit (FL-1 log 2 ratio >1.00 and no exclusion criterion met)” value [1, 7] was “identified as hits”.
With COc1ccc(CCN(C)CCCC(C#N)(c2ccc(OC)c(OC)c2)C(C)C)cc1OC (centres unmarked) [verapamil, Verapamil] the “screening hit (FL-1 log 2 ratio >1.00 and no exclusion criterion met)” value [1] was “identified as hits in both”.
In the case of Cardiolipin, the “Results: purified proteasome/lysate” value [2] is listed as “Increases mainly”.
In the case of Ceramides, the “Results: purified proteasome/lysate” value [2] is given as “Increases mainly”.
For Lysophosphatidylinositol, the “Results: purified proteasome/lysate” value [2] is given as “Increases mainly”.
For Medroxyprogesterone, the “screening hit (FL-1 log 2 ratio >1.00 and no exclusion criterion met)” value [1] was “initially identified in the JHCCL screen”.
In the case of Methylbenzethonium, the “screening hit (FL-1 log 2 ratio >1.00 and no exclusion criterion met)” value [1, 7] is reported as “identified as hits”.
For Polyarginine, the “Results: purified proteasome/lysate” value [2] is given as “Increases mainly”.
In the case of Polylysine, the “Results: purified proteasome/lysate” value [2] is listed as “Increases mainly”.
